Measured values reported in ChEMBL document CHEMBL4261492, “Synthesis and in vitro study of novel borneol derivatives as potent inhibitors of the influenza A virus” (Medchemcomm, 2017).
pIC50: −log10 of the molar value.

Legend:
[1] = test system: MDCK; assay: (§1) Cytotoxicity against MDCK cells after 48 hrs by MTT assay; format: cell-based, Canis lupus familiaris; conditions: dog, mdck, 48 h
[2] = in vitro; conditions: dog, MDCK cells, Ratio CC50/EC50
[3] = test system: Influenza A virus; assay: microbe, parasite or virus in culture; conditions: A/Puerto Rico/8/1934(H1N1), MDCK
[4] = test system: Influenza A virus; conditions: mdck
[5] = as §1; format: cell-based, Canis lupus familiaris; conditions: dog, MDCK cells

Row | Compound | CC50 [1] | selectivity ratio [2] | pIC50 [3] | pIC50 [4] | CC50 at 48 h [5]
1 | CCOC(=O)C1=C[C@@H](OC(CC)CC)[C@H](NC(C)=O)[C@@H](N)C1 [OSELTAMIVIR] | 160 µM | – | – | – | –
2 | CC1CCN(CC(=O)O[C@@H]2C[C@@H]3CC[C@@]2(C)C3(C)C)CC1 | 93.9 µM | 9 | 4.99 | – | –
3 | CC1(C)[C@H]2CC[C@]1(C)[C@H](OC(=O)CN1CCOCC1)C2 | 580 µM | 82 | 5.15 | – | –
4 | CCCCN(CCCC)CC(=O)O[C@@H]1C[C@@H]2CC[C@@]1(C)C2(C)C | 69.3 µM | – | < 4.47 | – | –
5 | CCN1CCN(CCC(=O)O[C@@H]2C[C@@H]3CC[C@@]2(C)C3(C)C)CC1 | 105 µM | 12 | 5.08 | – | –
6 | CC(N)C12CC3CC(CC(C3)C1)C2 (configuration not stated) [RIMANTADINE] | – | 5 | 4.17 | – | –
7 | NC12CC3CC(CC(C3)C1)C2 [AMANTADINE] | – | 4 | 4.19 | – | –
8 | CC1(C)[C@H]2CC[C@]1(C)[C@@H](O)C2 (stereo in doubt; 22) | > 974 µM | – | – | < 3.01 | –
9 | CC1(C)[C@H]2CC[C@]1(C)[C@H](OC(=O)CCN1CCCC1)C2 | 125 µM | 9 | 4.84 | – | –
10 | CC1(C)[C@H]2CC[C@]1(C)[C@@H](OC(=O)CN1CCOCC1)C2 | > 534 µM | – | 4.13 | – | –
11 | CCN1CCN(CC(=O)O[C@@H]2C[C@@H]3CC[C@@]2(C)C3(C)C)CC1 | – | 23 | 5.36 | – | 100 µM
12 | CCOC(=O)N1CCN(CCC(=O)O[C@@H]2C[C@@H]3CC[C@@]2(C)C3(C)C)CC1 | 150 µM | 2 | < 4.01 | – | –
13 | CN1CCN(CCC(=O)O[C@@H]2C[C@@H]3CC[C@@]2(C)C3(C)C)CC1 | 48.1 µM | 25 | 5.72 | – | –
14 | CC1(C)[C@H]2CC[C@]1(C)[C@H](OC(=O)CN1CCCCC1)C2 | 138 µM | 9 | 4.82 | – | –
15 | CC1CCN(CCC(=O)O[C@@H]2C[C@@H]3CC[C@@]2(C)C3(C)C)CC1 | 56.4 µM | 4 | 4.82 | – | –
16 | CCOC(=O)CN1CCOCC1 | > 1730 µM | – | 3.01 | – | –
17 | CN1CCN(CC(=O)O[C@@H]2C[C@@H]3CC[C@@]2(C)C3(C)C)CC1 | – | 14 | 5.15 | – | 103 µM
18 | CCCCN(CCCC)CCC(=O)O[C@@H]1C[C@@H]2CC[C@@]1(C)C2(C)C | 41.8 µM | 6 | 5.15 | – | –
19 | CC1(C)[C@H]2CC[C@]1(C)[C@H](OC(=O)CCN1CCOCC1)C2 | 552 µM | 45 | 4.91 | – | –
20 | COC(=O)CN1CCOCC1 | > 1890 µM | – | < 2.72 | – | –
21 | CC1(C)[C@H]2CC[C@]1(C)[C@H](OC(=O)CCN1CCCCC1)C2 | 69.6 µM | – | 5.11 | – | –
22 | CC1(C)[C@H]2CC[C@]1(C)[C@H](OC(=O)CN1CCNCC1)C2 | – | 16 | 5.49 | – | 51.6 µM
23 | CC1(C)[C@H]2CC[C@]1(C)[C@H](OC(=O)CCN1CCNCC1)C2 | 12.6 µM | 2 | 5.17 | – | –
24 | NC(=O)c1ncn([C@@H]2O[C@H](CO)[C@@H](O)[C@H]2O)n1 [RIBAVIRIN] | > 2000 µM | > 81 | 4.61 | – | –
25 | CC1(C)[C@H]2CC[C@]1(C)[C@@H](O)C2 (stereo in doubt; 1) | > 2140 µM | – | – | – | –
26 | CC1(C)[C@H]2CC[C@]1(C)[C@H](OC(=O)CN1CCCC1)C2 | 302 µM | 9 | 4.47 | – | –
27 | CC1(C)[C@H]2CC[C@]1(C)[C@@H](OC(=O)CCN1CCOCC1)C2 | 508 µM | 65 | 5.11 | – | –
28 | CCOC(=O)N1CCN(CC(=O)O[C@@H]2C[C@@H]3CC[C@@]2(C)C3(C)C)CC1 | > 852 µM | 1 | 3.17 | – | –
